{"source": "paper PMC8450872", "about": "(Human Reproduction (Oxford, England), 2021)", "biological_target": "CatSper (Homo sapiens, UniProt Q7RTX7+Q86XQ3+Q8NEC5+Q96P56)", "sequence (Q96P56 whole entry)": "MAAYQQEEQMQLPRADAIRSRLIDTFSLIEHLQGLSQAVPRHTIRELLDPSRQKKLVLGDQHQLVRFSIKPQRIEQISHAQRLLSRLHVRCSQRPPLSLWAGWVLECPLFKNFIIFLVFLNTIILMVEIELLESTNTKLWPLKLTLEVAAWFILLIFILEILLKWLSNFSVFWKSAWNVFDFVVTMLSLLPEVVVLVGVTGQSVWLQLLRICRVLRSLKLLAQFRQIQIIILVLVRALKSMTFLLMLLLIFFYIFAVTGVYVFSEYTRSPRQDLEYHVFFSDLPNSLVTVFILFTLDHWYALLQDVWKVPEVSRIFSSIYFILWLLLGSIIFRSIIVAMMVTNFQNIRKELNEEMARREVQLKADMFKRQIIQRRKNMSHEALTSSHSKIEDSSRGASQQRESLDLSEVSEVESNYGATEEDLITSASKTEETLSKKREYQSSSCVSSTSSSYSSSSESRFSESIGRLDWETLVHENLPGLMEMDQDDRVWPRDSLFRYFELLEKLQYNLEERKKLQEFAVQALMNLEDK", "sequence (Q8NEC5 whole entry)": "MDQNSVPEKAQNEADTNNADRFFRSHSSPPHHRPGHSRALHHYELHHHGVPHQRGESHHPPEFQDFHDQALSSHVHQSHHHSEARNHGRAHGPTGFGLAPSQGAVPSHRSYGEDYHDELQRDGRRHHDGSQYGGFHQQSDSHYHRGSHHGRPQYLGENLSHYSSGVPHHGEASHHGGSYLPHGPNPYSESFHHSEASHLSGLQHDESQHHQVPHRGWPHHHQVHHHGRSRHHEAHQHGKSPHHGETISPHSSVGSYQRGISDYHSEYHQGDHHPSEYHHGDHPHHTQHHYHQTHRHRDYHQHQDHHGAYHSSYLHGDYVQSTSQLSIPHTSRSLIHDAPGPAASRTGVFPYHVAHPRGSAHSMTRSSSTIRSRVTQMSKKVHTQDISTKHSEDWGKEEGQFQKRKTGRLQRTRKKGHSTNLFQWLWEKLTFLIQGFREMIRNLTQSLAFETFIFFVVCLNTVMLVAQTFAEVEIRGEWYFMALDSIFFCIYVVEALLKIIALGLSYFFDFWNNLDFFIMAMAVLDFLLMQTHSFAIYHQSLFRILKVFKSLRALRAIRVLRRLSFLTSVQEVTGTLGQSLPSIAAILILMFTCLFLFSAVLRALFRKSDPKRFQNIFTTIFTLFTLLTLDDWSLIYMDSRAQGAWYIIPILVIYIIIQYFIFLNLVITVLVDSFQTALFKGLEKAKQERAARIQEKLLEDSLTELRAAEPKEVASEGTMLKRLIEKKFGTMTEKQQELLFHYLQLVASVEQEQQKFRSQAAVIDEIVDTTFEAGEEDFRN", "sequence (Q86XQ3 whole entry)": "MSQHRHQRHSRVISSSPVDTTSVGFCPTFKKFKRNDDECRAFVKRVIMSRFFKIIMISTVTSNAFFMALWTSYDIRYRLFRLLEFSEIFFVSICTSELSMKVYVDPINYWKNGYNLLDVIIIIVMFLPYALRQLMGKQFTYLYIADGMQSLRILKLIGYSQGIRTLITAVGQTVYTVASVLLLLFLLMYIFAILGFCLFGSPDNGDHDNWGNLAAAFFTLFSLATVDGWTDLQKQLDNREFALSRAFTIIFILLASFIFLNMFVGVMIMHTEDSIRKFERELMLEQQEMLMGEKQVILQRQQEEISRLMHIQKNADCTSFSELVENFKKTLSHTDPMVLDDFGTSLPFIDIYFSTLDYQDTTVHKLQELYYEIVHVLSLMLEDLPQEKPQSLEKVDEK", "sequence (Q7RTX7 whole entry)": "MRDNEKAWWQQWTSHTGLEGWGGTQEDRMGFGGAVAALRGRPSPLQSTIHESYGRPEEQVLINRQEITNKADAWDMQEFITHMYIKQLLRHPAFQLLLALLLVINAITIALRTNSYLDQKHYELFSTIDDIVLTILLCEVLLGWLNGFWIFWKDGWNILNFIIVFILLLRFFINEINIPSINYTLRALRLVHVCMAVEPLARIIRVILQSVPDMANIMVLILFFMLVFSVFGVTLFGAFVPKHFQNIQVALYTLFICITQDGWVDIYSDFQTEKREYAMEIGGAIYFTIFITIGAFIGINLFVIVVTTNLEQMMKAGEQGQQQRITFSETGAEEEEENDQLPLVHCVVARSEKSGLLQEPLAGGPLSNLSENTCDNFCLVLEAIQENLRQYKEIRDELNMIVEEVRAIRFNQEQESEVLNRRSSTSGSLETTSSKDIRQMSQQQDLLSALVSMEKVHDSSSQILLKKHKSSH", "assay": "whole-cell patch clamp of human sperm", "type": "cell-based"}
{"molecule": "CN[C@H]1CC[C@@H](c2ccc(Cl)c(Cl)c2)c2ccccc21", "note": "[Sertraline]", "values": [{"measurement": "IC50", "value": "4.62 ± 1.18", "unit": "µM"}]}
